For series [1] the following is noted: 125 mg QD; clinical studies; cited from earlier work.
For series [2], the system named is primary human myelofibrosis samples. Kind of series: Colony formation assay in primary myelofibrosis samples (Example 2). The class given is cell-based. The settings on record: for IC50: Homo sapiens. How it is done: (§1) Bone marrow or peripheral blood mononuclear cells from myelofibrosis (MF) patients were directly seeded in semisolid Methocult media (H3404) with Compound (I) alone, (at concentrations ranging from 1.25 to 10 nM) or in combination with Fed (at 100 and 300 nM) or Rux (at 30 and 100 nM). Treatment was added at the beginning and maintained throughout the 14-day incubation period without compound washout.
(§2) Colony forming unit (CFU) data acquisition and automatic colony counting were performed using the STEMvision device and software (StemCell Technologies, Vancouver, Canada). Counting corrections according to standard criteria were done manually by a trained user. GraphPad Prism 7 was used for data plotting and analysis.

Series [3] has as its system HEL92.1.7 cells. Kind of series: CellTiter Glo cell viability assay (Example 5). It is filed as cell-based. The settings on record: for IC50: Homo sapiens. On the procedure: (§3) Cells were seeded in 96-well plates at 10,000 cells per well in 100 μL of media containing either 0.1% DMSO or varying concentrations of drug. Cell viability was determined 3 days and 5 days later via the CellTiter GloLuminescent Cell Viability Assay from Promega (Madison, WI) according to the manufacturer's protocol. Specifically, 50 μL of reagent was added to each well and plates were incubated for 10 minutes in the dark to stabilize the luminescent signal. Luminescence was then detected using a chemiluminescence detection system (EnVision Multimode Microplate Reader; PerkinElmer).
On the technique in general: In ATP-based viability assays light output follows the ATP content of the culture.

In series [4] the test system is SET-2 cells. The series is described as follows: CellTiter Glo cell viability assay (Example 5). The class given is cell-based. The settings on record: for IC50: Homo sapiens. On the procedure: as §3
For series [5], the system named is bone marrow CD34+ cells from healthy volunteers. Kind of series: Colony-forming assay with normal hematopoietic progenitors (Example 2). The class given is cell-based. The settings on record: Homo sapiens, 336 h, healthy donors, 14 days. On the procedure:
as §1
To test the effects of Compound (I) on the functionality of normal hematopoietic progenitors, colony-forming assays were also done with bone marrow CD34^+ cells from healthy volunteers using the same conditions of treatment as described for MF samples.
as §2

The subject of series [6] is HEL92.1.7 cells. Kind of series: CellTiter-Glo proliferation/viability assay, single agent and JAKi combination (Example 1). The class given is cell-based. The settings on record: single agent; for IC50: 3 days incubation, CTG. On the procedure:
(§4) HEL92.1.7 and SET-2 are post-MPN secondary acute myeloid leukemia (sAML) cell lines that harbor the JAK2 V617F mutation and serve as cell line models of the malignant clones driving disease in MPNs.
(§5) HEL92.1.792.1.7 (post-MPN sAML), a homozygous mutant (V617F), SET-2 (post-MPN sAML), a heterozygous mutant (V617F), were cultured in Roswell Park Memorial Institute (RPMI) 1640 medium (ATCC) supplemented with 10% or 20% fetal b ovine serum (FBS) (Corning) for HEL92.1.792.17 or SET-2 respectively, 2 mM L-glutamine (L-glu) (Gibco), and non-essential amino acid 1× (NEAA) cell culture supplement (Gibco). WI-38 primary lung fibroblastWI-38 were cultured in Eagle's Minimum Essential Medium (EMEM) (ATCC) with 10% FBS, 2 mM L-glu, and 1× NEAA.
(§6) CellTiter-Glo® (CTG), a luminescent dye that measures adenosine-5′-triphosphate (ATP), was used to quantify the cell proliferation in the 3 cell types in duplicate. Compound (I) was pre-spotted into 384-well plates (diluted in final dimethyl sulfoxide [DMSO] concentration of 0.1% for assay volume of 50 μL). A 10-point dose-response starting at […] with a 4-fold dilution that included one DMSO point and nine drug points was tested for each cell line. The JAK inhibitors (JAKi) Rux and Fed were also pre-spotted at concentrations of 0, 0.03, 0.1, 0.3, and 0.6 μM and HEL92.1.7 constant for each 10-point the Compound (I) dose-response curve (DRC) to produce five compounds of formula (I) DRCs for each JAKi in each cell line.
(§7) A cell suspension volume of 50 μL at their respective seeding densities was added to 384-well plates containing Compound (I) plus JAKi. The effect of Compound (I) single agent or JAKi combination on the proliferation/viability of cells was assessed after 3 days of incubation. Twenty-five microliters of CTG per well was then dispensed to the cell suspension, and ATP released by viable cells was measured after a 30-minute incubation as relative luminescence units (RLU) using an EnVision plate reader (PerkinElmer, Covina, CA). Cytotoxicity was indicated by a lower ATP level in the media after 3-day drug treatment compared to the Day 0 ATP level. Day 0 CTG was read for HEL92.1. and SET-2 suspension cell lines while the Day 0 CTG read for WI-38 could not be read because it is an adherent cell line.
(§8) Percent growth (% Growth) was calculated with the equation [% Growth=(Day 5 RLU—Day 0 RLU)/(Day 0 RLU)] while percent DMSO (% DMSO) was calculated with the equation [% DMSO=(Treatment RLU/DMSO RLU)×100]. All data was analyzed by GraphPad Prism 7 with the XY analyses nonlinear regression curve fit using the parameters for “log(inhibitor) vs. response—Variable slope (four parameters).” Cytotoxicity was called if any part of the DRC CTG signal went below the Day 0 CTG read and cytostatic effects were indicated by the DRC CTG signal staying above the Day 0 line.
(§9) Combination analysis was performed with software Combenefit version 2.021. Combination matrix plots describing additivity effects were generated with the Highest Single-Agent (HSA) model, combination matrix plots describing synergy effects were generated with the Bliss model, and the HSA and Bliss scores for each combination matrix plot were tabulated. An arbitrary cut off-of 10 for HSA and Bliss scores was used to reflect significant additivity and synergy, respectively. […]

Series [7] has as its system SET-2 cells. The series is described as above. The class given is cell-based. The settings on record: single agent. How it is done:
as §4, §5, §6, §7, §8, §9

Series [8] is described as follows: First-in-human PK study of Compound (I) (Example 6). It is filed as in vivo. The settings on record: for Cmax: Cycle 2 Day 5, 5 days on/2 days off, read-out: Cmax Cycle 2 Steady State (geometric mean). On the procedure: A first-in-human study was conducted on Compound (I) with select advanced tumors and hematologic malignancies. PK data was available from 65 subjects across 5 doses and 3 schedules. Intensive samples were collected on Cycle 1 Day 1 and Cycle 2 Day 5, Day 7, or Day 14 based on dosing schedule (5 days on/2 days off, 7 days on/14 days off, and 14 days on/7 days off).

Series [9] has as its system cell models expressing mutationally active JAK2V617F or FLT3ITD. The settings on record: cited from earlier work.
For series [10], the system named is mouse models of JAK2V617F-driven myeloproliferative disease. The settings on record: in vivo; cited from earlier work.

Where two headings read alike, the source gives them in different places. Where only a bound is given, the exact number is not on record here.

As a reminder, the Cmax is the peak of the concentration-time curve. For `Cc1noc2c1-c1ccccc1C(c1ccc(Cl)cc1)=N[C@H]2CC(N)=O` [CPI-0610], in series [1], the highest concentration (Cmax) is 4 µM and the T1/2 is 16 h.
By IC50 is commonly meant the concentration that inhibits the measured activity by half. A word on the half-life: it is the time in which the quantity being followed falls by half. Take `Cc1nnn(C)c1-c1cnc2c3ccc(C(C)(C)O)cc3n([C@H](c3ccccc3)C3CCOCC3)c2c1` [Compound (I)]: the IC50 in series [2] (336 h, range among 10 primary human myelofibrosis samples, 14 days, read-out: IC50 values for inhibition of colonies) was 1.25 to 4.46 nM; in series [2] (336 h, sample MF 18 (JAK2), single agent, colony formation 14 days, read-out: IC50 Compound (I)), 1.58 nM; in series [2] (336 h, sample MF 22 (WT), single agent, colony formation 14 days, read-out: IC50 Compound (I)), 3.7 nM; in [2] (336 h, sample MF 29 (JAK2), single agent, colony formation 14 days, read-out: IC50 Compound (I)), 2.56 nM; in series [2] (336 h, sample MF 31 (CALR), single agent, colony formation 14 days, read-out: IC50 Compound (I)), 2.02 nM; in series [2] (336 h, sample MF 33 (CALR), single agent, colony formation 14 days, read-out: IC50 Compound (I)), 4.46 nM. For the same molecule, the IC50 in [2] (336 h, sample MF 38 (WT), single agent, colony formation 14 days, read-out: IC50 Compound (I)) was 2.11 nM; in series [2] (336 h, sample MF 54 (JAK2), single agent, colony formation 14 days, read-out: IC50 Compound (I)), 1.25 nM; in [2] (336 h, sample MF 63 (CALR), single agent, colony formation 14 days, read-out: IC50 Compound (I)), 2.6 nM; in series [2] (336 h, sample MF 76 (JAK2), single agent, colony formation 14 days, read-out: IC50 Compound (I)), 3.43 nM; in [2] (336 h, sample MF 77 (JAK2), single agent, colony formation 14 days, read-out: IC50 Compound (I)) it was 1.27 nM; with HEL92.1.7 cells [3] (HEL 92.1.7, 72 h, Day 3, read-out: single agent IC50), 15 nM. The IC50 in the series with HEL92.1.7 cells [3] (HEL 92.1.7, 120 h, Day 5, read-out: single agent IC50) is 19 nM; in the series on SET-2 cells [4] (72 h, Day 3, read-out: single agent IC50) it was 2.8 nM; in the series on SET-2 cells [4] (120 h, Day 5, read-out: single agent IC50) it was 2.4 nM; in series [5] (read-out: IC50 for inhibition of BFU-E), about 2.3 nM; in series [5] (CFU-GM, read-out: IC50 for inhibition of CFU-GM), about 3 nM; in the series on HEL92.1.7 cells [6] (Homo sapiens, HEL 92.1.7, 72 h), 6.2 nM. The IC50 in the series on HEL92.1.7 cells [6] was found to be 5.6 nM; with SET-2 cells [7] (Homo sapiens, 72 h, 3 days incubation, CTG) it was 1.9 nM. The “therapeutic index (TI)” value in series [2] (in 7 out of 10 MF samples, ratio of IC50 in MF sample and average IC50 in normal bone marrow CD34+ cells) is recorded as over 1 fold. Moreover, the “activity compared to CPI-0610” value in the series with HEL92.1.7 cells [3] (viability) and with SET-2 cells [4] (viability) was “better activity” throughout. The “cytotoxic vs cytostatic effect” value with HEL92.1.7 cells [6] (CTG signal vs Day 0) and in the series on SET-2 cells [7] (CTG signal vs Day 0) was “cytotoxic effects” in each case. Besides, the Cmax was determined as 272 nM in series [8] (dose 0.75 mg); 577 nM in series [8] (dose 1.25 mg); 892 nM in series [8] (dose 2.0 mg); 1200 nM in [8] (human, in vivo, dose 3.0 mg); 1840 nM in [8] (human, in vivo, dose 4.5 mg). In addition, the half-life in [8] (in vivo, single dose, 5 days on/2 days off schedule, human, read-out: terminal half-life (converted)) is about 2.67 days.
As for `Cc1cnc(Nc2ccc(OCCN3CCCC3)cc2)nc1Nc1cccc(S(=O)(=O)NC(C)(C)C)c1` [fedratinib], the IC50 turned out to be 146 nM in [2] (sample MF 18 (JAK2), fedratinib alone, read-out: IC50 FEDR); 309 nM in series [2] (sample MF 22 (WT), fedratinib alone, read-out: IC50 FEDR); 472 nM in series [2] (sample MF 29 (JAK2), fedratinib alone, read-out: IC50 FEDR); 908 nM in series [2] (sample MF 31 (CALR), fedratinib alone, read-out: IC50 FEDR); 930 nM in series [2] (sample MF 33 (CALR), fedratinib alone, read-out: IC50 FEDR); 931 nM in series [2] (sample MF 38 (WT), fedratinib alone, read-out: IC50 FEDR). Besides, the IC50 in series [2] (sample MF 54 (JAK2), fedratinib alone, read-out: IC50 FEDR) is 381 nM; in series [2] (sample MF 63 (CALR), fedratinib alone, read-out: IC50 FEDR), 779 nM; in series [2] (sample MF 76 (JAK2), fedratinib alone, read-out: IC50 FEDR), over 1000 nM; in [2] (sample MF 77 (JAK2), fedratinib alone, read-out: IC50 FEDR), 695 nM. Moreover, the apoptotic cell death entry in [9] is listed as “induced”. Also, the cell proliferation entry in series [9] was “inhibited”. Further, in [9], the “phosphorylation of STAT3 and STAT5 proteins” value was “reduced”. For the same molecule, the “phosphorylation of STAT3/5” value in [10] was “blocked”. Moreover, the “survival, WBC counts, hematocrit, splenomegaly, and fibrosis” value in series [10] is reported as “improved”.
`N#CC[C@H](C1CCCC1)n1cc(-c2ncnc3[nH]ccc23)cn1` [ruxolitinib]: the IC50 is 35.5 nM in [2] (sample MF 18 (JAK2), ruxolitinib alone, read-out: IC50 RUX); 212 nM in [2] (sample MF 22 (WT), ruxolitinib alone, read-out: IC50 RUX); 212 nM in series [2] (sample MF 29 (JAK2), ruxolitinib alone, read-out: IC50 RUX); 284 nM in series [2] (sample MF 31 (CALR), ruxolitinib alone, read-out: IC50 RUX); 862 nM in series [2] (sample MF 33 (CALR), ruxolitinib alone, read-out: IC50 RUX); 217 nM in series [2] (sample MF 38 (WT), ruxolitinib alone, read-out: IC50 RUX). For the same molecule, the IC50 came out at 686 nM in [2] (sample MF 54 (JAK2), ruxolitinib alone, read-out: IC50 RUX); 70.6 nM in series [2] (sample MF 63 (CALR), ruxolitinib alone, read-out: IC50 RUX); 686 nM in [2] (sample MF 76 (JAK2), ruxolitinib alone, read-out: IC50 RUX); 528 nM in [2] (sample MF 77 (JAK2), ruxolitinib alone, read-out: IC50 RUX).

Source of the values: patent US12357621B2, “BET inhibitors as a treatment for myelofibrosis” (Impact Biomedicines, Inc., priority 2021, dated 2025).
